# Measurements published in PubChem BioAssay AID1963851 (Molecular Pharmacology Branch, DTP, NCI, 2024).
# Test system: 188146-221-R-J1-PDC complex spheroid viability
# Assay: Anticancer human tumor 188146-221-R-J1-PDC patient-derived colon adenocarcinoma cell line growth inhibition [POLQ]
# Conditions: for IC50: curve of first compound; for viability, T/C: stronger effect = lower value
# Summary of the method: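 Growth inhibition in 3D: complex spheroids (tumor PDC, HUVEC, MSC) treated with POLQ inhibitor combinations; where Cmax unknown, highest tested concentration 10 microM, except SN-38 at 1 microM.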
# [1] = second compound 0.0316 µM, first compound 0.0316 µM
# [2] = second compound 0.0316 µM, first compound 0.1 µM
# [3] = second compound 0.0316 µM, first compound 0.316 µM
# [4] = second compound 0.0316 µM, first compound 1 µM
# [5] = second compound 0.0316 µM, first compound 3.16 µM
# [6] = second compound 0.0316 µM, first compound 10 µM
# [7] = second compound 0.1 µM, first compound 0.0316 µM
# [8] = second compound 0.1 µM, first compound 0.1 µM
# [9] = second compound 0.1 µM, first compound 0.316 µM
# [10] = second compound 0.1 µM, first compound 1 µM
# [11] = second compound 0.1 µM, first compound 3.16 µM
# [12] = second compound 0.1 µM, first compound 10 µM
# [13] = second compound 0.316 µM, first compound 0.0316 µM
# [14] = second compound 0.316 µM, first compound 0.1 µM
# [15] = second compound 0.316 µM, first compound 0.316 µM
# [16] = second compound 0.316 µM, first compound 1 µM
# [17] = second compound 0.316 µM, first compound 3.16 µM
# [18] = second compound 0.316 µM, first compound 10 µM
# [19] = second compound 1 µM, first compound 0.0316 µM
# [20] = second compound 1 µM, first compound 0.1 µM
# [21] = second compound 1 µM, first compound 0.316 µM
# [22] = second compound 1 µM, first compound 1 µM
# [23] = second compound 1 µM, first compound 3.16 µM
# [24] = second compound 1 µM, first compound 10 µM
# [25] = second compound 3.16 µM, first compound 0.0316 µM
# [26] = second compound 3.16 µM, first compound 0.1 µM
# [27] = second compound 3.16 µM, first compound 0.316 µM
# [28] = second compound 3.16 µM, first compound 1 µM
# [29] = second compound 3.16 µM, first compound 3.16 µM
# [30] = second compound 3.16 µM, first compound 10 µM
# [31] = second compound 10 µM, first compound 0.0316 µM
# [32] = second compound 10 µM, first compound 0.1 µM
# [33] = second compound 10 µM, first compound 0.316 µM
# [34] = second compound 10 µM, first compound 1 µM
# [35] = second compound 10 µM, first compound 3.16 µM
# [36] = second compound 10 µM, first compound 10 µM
# 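Note: spheroids exposed to compounds for seven days.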
# 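Throughout, for viability, T/C: 100% = DMSO vehicle control viability.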
structure (smiles),measurement,setting,value
C=CC(=O)N1CCN(c2nc(=O)n(-c3c(C)ccnc3C(C)C)c3nc(-c4c(O)cccc4F)c(F)cc23)C(C)C1 (stereo not drawn) + COC1C(OC(N)=O)C(O)C(Oc2ccc3c(O)c(NC(=O)c4ccc(O)c(CC=C(C)C)c4)c(=O)oc3c2C)OC1(C)C,IC50,second compound 0.0316 µM,> 10 µM
same,IC50,second compound 0.1 µM,> 10 µM
same,IC50,second compound 0.316 µM,> 10 µM
same,IC50,second compound 1 µM,> 10 µM
same,IC50,second compound 3.16 µM,> 10 µM
same,IC50,second compound 10 µM,> 10 µM
same,"viability, T/C",[1],103%
same,"viability, T/C",[2],97%
same,"viability, T/C",[3],85.7%
same,"viability, T/C",[4],99.1%
same,"viability, T/C",[5],98.7%
same,"viability, T/C",[6],72.4%
same,"viability, T/C",[7],107%
same,"viability, T/C",[8],107%
same,"viability, T/C",[9],94.6%
same,"viability, T/C",[10],105%
same,"viability, T/C",[11],88.1%
same,"viability, T/C",[12],92.6%
same,"viability, T/C",[13],110%
same,"viability, T/C",[14],107%
same,"viability, T/C",[15],103%
same,"viability, T/C",[16],110%
same,"viability, T/C",[17],95.3%
same,"viability, T/C",[18],83.6%
same,"viability, T/C",[19],93.2%
same,"viability, T/C",[20],105%
same,"viability, T/C",[21],113%
same,"viability, T/C",[22],101%
same,"viability, T/C",[23],101%
same,"viability, T/C",[24],90.4%
same,"viability, T/C",[25],107%
same,"viability, T/C",[26],109%
same,"viability, T/C",[27],100%
same,"viability, T/C",[28],101%
same,"viability, T/C",[29],90.3%
same,"viability, T/C",[30],87.2%
same,"viability, T/C",[31],96%
same,"viability, T/C",[32],107%
same,"viability, T/C",[33],108%
same,"viability, T/C",[34],97.5%
same,"viability, T/C",[35],115%
same,"viability, T/C",[36],93.7%
CC1COCCN1c1cc(C2(S(C)(=N)=O)CC2)nc(-c2ccnc3[nH]ccc23)n1 (stereo not drawn) + Cc1cccc(N(C)C(=O)C2C(O)CCN2c2nc(C)cc(C(F)(F)F)c2C#N)c1,IC50,second compound 0.0316 µM,4.9 µM
same,IC50,second compound 0.1 µM,4.65 µM
same,IC50,second compound 0.316 µM,5.33 µM
same,IC50,second compound 1 µM,4.36 µM
same,IC50,second compound 3.16 µM,4.9 µM
same,IC50,second compound 10 µM,3.21 µM
same,"viability, T/C",[1],108%
same,"viability, T/C",[2],92.9%
same,"viability, T/C",[3],97.6%
same,"viability, T/C",[4],95.7%
same,"viability, T/C",[5],65.2%
same,"viability, T/C",[6],25.1%
same,"viability, T/C",[7],114%
same,"viability, T/C",[8],98.3%
same,"viability, T/C",[9],93.9%
same,"viability, T/C",[10],89.1%
same,"viability, T/C",[11],58.7%
same,"viability, T/C",[12],27.7%
same,"viability, T/C",[13],98.4%
same,"viability, T/C",[14],96.9%
same,"viability, T/C",[15],97.9%
same,"viability, T/C",[16],90.2%
same,"viability, T/C",[17],68.5%
same,"viability, T/C",[18],27.8%
same,"viability, T/C",[19],101%
same,"viability, T/C",[20],91%
same,"viability, T/C",[21],95.7%
same,"viability, T/C",[22],91.4%
same,"viability, T/C",[23],58.2%
same,"viability, T/C",[24],28.9%
same,"viability, T/C",[25],88.5%
same,"viability, T/C",[26],103%
same,"viability, T/C",[27],81.4%
same,"viability, T/C",[28],83.8%
same,"viability, T/C",[29],63.8%
same,"viability, T/C",[30],27.2%
same,"viability, T/C",[31],90%
same,"viability, T/C",[32],78.5%
same,"viability, T/C",[33],88.8%
same,"viability, T/C",[34],62%
same,"viability, T/C",[35],53.2%
same,"viability, T/C",[36],19.4%
CNCc1ccc(-c2[nH]c3cc(F)cc4c3c2CCNC4=O)cc1 + Cc1cccc(N(C)C(=O)C2C(O)CCN2c2nc(C)cc(C(F)(F)F)c2C#N)c1,IC50,second compound 0.0316 µM,> 10 µM
same,IC50,second compound 0.1 µM,> 10 µM
same,IC50,second compound 0.316 µM,> 10 µM
same,IC50,second compound 1 µM,> 10 µM
same,IC50,second compound 3.16 µM,> 10 µM
same,IC50,second compound 10 µM,> 10 µM
same,"viability, T/C",[1],98.6%
same,"viability, T/C",[2],103%
same,"viability, T/C",[3],101%
same,"viability, T/C",[4],97.3%
same,"viability, T/C",[5],114%
same,"viability, T/C",[6],105%
same,"viability, T/C",[7],108%
same,"viability, T/C",[8],98.6%
same,"viability, T/C",[9],102%
same,"viability, T/C",[10],104%
same,"viability, T/C",[11],108%
same,"viability, T/C",[12],112%
same,"viability, T/C",[13],112%
same,"viability, T/C",[14],105%
same,"viability, T/C",[15],106%
same,"viability, T/C",[16],103%
same,"viability, T/C",[17],106%
same,"viability, T/C",[18],108%
same,"viability, T/C",[19],109%
same,"viability, T/C",[20],103%
same,"viability, T/C",[21],97.7%
same,"viability, T/C",[22],109%
same,"viability, T/C",[23],100%
same,"viability, T/C",[24],110%
same,"viability, T/C",[25],112%
same,"viability, T/C",[26],112%
same,"viability, T/C",[27],95.1%
same,"viability, T/C",[28],84.1%
same,"viability, T/C",[29],112%
same,"viability, T/C",[30],110%
same,"viability, T/C",[31],99.4%
same,"viability, T/C",[32],83.2%
same,"viability, T/C",[33],100%
same,"viability, T/C",[34],93.8%
same,"viability, T/C",[35],106%
same,"viability, T/C",[36],101%
CC(C)n1c(=O)n(C)c2cnc3cc(F)c(-c4ccc(OCCCN5CCCCC5)nc4)cc3c21 + Nc1ccc(C#CCN(C(=O)Cc2ncc(C(F)(F)F)cc2C(F)(F)F)c2ccc(F)cc2)nn1,IC50,second compound 0.0316 µM,> 10 µM
same,IC50,second compound 0.1 µM,> 10 µM
same,IC50,second compound 0.316 µM,> 10 µM
same,IC50,second compound 1 µM,> 10 µM
same,IC50,second compound 3.16 µM,> 10 µM
same,IC50,second compound 10 µM,> 10 µM
same,"viability, T/C",[1],87.3%
same,"viability, T/C",[2],106%
same,"viability, T/C",[3],95.4%
same,"viability, T/C",[4],97.9%
same,"viability, T/C",[5],83.6%
same,"viability, T/C",[6],80.7%
same,"viability, T/C",[7],101%
same,"viability, T/C",[8],107%
same,"viability, T/C",[9],94.9%
same,"viability, T/C",[10],92.2%
same,"viability, T/C",[11],92.6%
same,"viability, T/C",[12],83.7%
same,"viability, T/C",[13],94.8%
same,"viability, T/C",[14],94.7%
same,"viability, T/C",[15],89.4%
same,"viability, T/C",[16],96.8%
same,"viability, T/C",[17],103%
same,"viability, T/C",[18],80.9%
same,"viability, T/C",[19],104%
same,"viability, T/C",[20],101%
same,"viability, T/C",[21],88%
same,"viability, T/C",[22],88.9%
same,"viability, T/C",[23],93.7%
same,"viability, T/C",[24],86.9%
same,"viability, T/C",[25],99%
same,"viability, T/C",[26],98.3%
same,"viability, T/C",[27],99.5%
same,"viability, T/C",[28],84.2%
same,"viability, T/C",[29],95.3%
same,"viability, T/C",[30],87.8%
same,"viability, T/C",[31],105%
same,"viability, T/C",[32],95.5%
same,"viability, T/C",[33],98.4%
same,"viability, T/C",[34],96.6%
same,"viability, T/C",[35],97.9%
same,"viability, T/C",[36],84.1%
